We go through four compounds from patent publication US11286263B2, “Macrocyclic fluorine substituted indole derivatives” (The Broad Institute, Inc., priority 2017, dated 2022).

pIC50: −log10 of the molar value. Counter-ions that a name gives are not always drawn. Like-named read-outs stand apart in the source and are kept apart here.

The subject of data set [1] is BxPC-3. As to the kind of experiment: Antiproliferation assay BxPC-3 (Assay 7). It counts as cell-based. The settings on record: Homo sapiens; BxPC-3 cells, 72 h, CellTiter-Glo; single determinations; read-out: IC50 Antiproli BxPC-3. The procedure: (§1) Assessment of the Anti-Proliferative Effect of Compounds in Different Cell Lines
(§2) The impact of compounds on the proliferation of different cell lines was assessed using the CellTiter-Glo® Luminescent Cell Viability reagent from Promega (G7573).
(§3) In parallel, cells were plated in a reference (day 0) plate for time zero determination.
(§4) Rim wells were excluded. The cells were incubated for 72 h hours in a humidified incubator at 37° C. The day 0 plate was measured by adding 30 μL/well of CTG solution (CellTiter-Glo® Luminescent Cell Viability reagent, Promega G7573) to time zero wells in the reference plate followed by a 10 minutes incubation and luminescence reading at 0.1 ms. using the PHERAstar FS microplate reader (BMG Labtech).
(§5) After 72 h incubation, the treated plates were measured in the same way as the day 0 plate mentioned above.

Data set [2] has as its system SUDHL5.
The test system of data set [3] is SUDHL10.
For data set [4], the system named is SK-BR-3. The experiment in a line: Antiproliferation assay SK-BR-3 (Assay 7). It counts as cell-based. Particulars: SK-BR-3 cells, CellTiter-Glo, single determinations, read-out: IC50 Antiproli SK-BR-3. The procedure:
as §1, §2, §3, §4, §5

For data set [5], the system named is NCI-H23. The experiment in a line: Antiproliferation assay NCI-H23 (Assay 7). It counts as cell-based. Particulars: NCI-H23 cells, CellTiter-Glo, single determinations, read-out: IC50 Antiproli NCI-H23. The procedure: as §1, §2, §3, §4, §5
In data set [6] the test system is A2058. As to the kind of experiment: Antiproliferation assay A2058 (Assay 7). Type of data set: cell-based. The settings on record: Homo sapiens; A2058 cells, 72 h, CellTiter-Glo; single determinations; read-out: IC50 Antiproli A2058. The procedure:
as §1, §2, §3, §4, §5

For `CCc1c2c(nn1C)COCCCCn1c(C(=O)O)c(CCCOc3cccc4cc(F)ccc34)c3ccc(F)c-2c31` (single isomer, unassigned; enantiomer 1) [Example 22, 3-ethyl-4-fluoro-7-{3-[(6-fluoronaphthalen-1-yl)oxy]propyl}-2-methyl-2,10,11,12,13,15-hexahydropyrazolo[4′,3′:9,10][1,6]oxazacycloundecino[8,7,6-hi]indole-8-carboxylic acid-N-ethylethanamine salt (enantiomer 1)], the pIC50 in data set [1] was 4.63.

In the case of “(rac)-1-(3-((2,3-dihydro-1H-inden-4-yl)oxy)propyl)-12-ethyl-13-fluoro-11-methyl-4,5,6,7,9,11-hexahydropyrazolo[4′,3′:9,10][1]oxa[6]azacycloundecino[8,7,6-hi]indole-2-carboxylic acid [Example 30]”, the negative-log IC50 (pIC50) is 5.96 in data set [2] and 5.89 in data set [3].

Take `Cc1c2c(nn1C)COCCCCn1c(C(=O)O)c(CCCOc3cccc4ccccc34)c3ccc(F)c-2c31` (single isomer, unassigned; enantiomer 1) [Example 3, 4-fluoro-2,3-dimethyl-7-[3-(naphthalen-1-yloxy)propyl]-2,10,11,12,13,15-hexahydropyrazolo-[4′,3′:9,10][1,6]oxazacycloundecino[8,7,6-hi]indole-8-carboxylic acid-N-ethylethanamine salt (enantiomer 1)]: the negative logarithm of the IC50 (pIC50) in data set [4] (Homo sapiens, SK-BR-3, 72 h) is 5.02; in data set [5] (Homo sapiens, NCI-H23, 72 h), 5.16; in data set [6], less than 4.48.

In the case of `Cc1c2c(nn1C)COCCCCn1c(C(=O)O)c(CCCOc3cccc4ccccc34)c3ccc(F)c-2c31` (racemic) [Example 2, (rac)-4-fluoro-2,3-dimethyl-7-[3-(naphthalen-1-yloxy)propyl]-2,10,11,12,13,15-hexahydro-pyrazolo[4′,3′:9,10][1,6]oxazacycloundecino[8,7,6-hi]indole-8-carboxylic acid], the pIC50 is 5.15 in data set [4] (Homo sapiens, SK-BR-3, 72 h); 5.16 in data set [4] (72 h, listed as 02); 5.12 in data set [5] (Homo sapiens, NCI-H23, 72 h); 5.02 in data set [5] (72 h, listed as 02); less than 4.48 in data set [6].
